# Where “and” joins values, the source holds several entries; their conditions need not be identical. Equal entries are not always repeated.
# System: Long Evans rats
# Experiment: Behavioral satiety sequence (BSS)
# Format: in vivo, Long Evans rat
# Description: The Behavioural Satiety Sequence (BSS) is a technique used to evaluate physiological satiety. It is based on the expression of a sequence of behaviors including eating, grooming, locomotor activity, followed by resting, which are typically observed in rodents post-ingestion (Halford et al, 1998, Pharmacology Biochemistry and Behaviour. 61(2): 159-168). The BSS is a widely used model for determining the effects of novel pharmaceuticals on food intake and measures of satiety in rodents (Oliveira et al, 2011, Revista de Nutrição. 24(4) 619-628), and to discriminate the cause of reduced food intake following pharmacological manipulation. For example, treatments that may reduce food intake by non-specific mechanisms, such as immobility, malaise, and taste adulteration, will disrupt this sequence (Halford et al, 1998, Pharmacology Biochemistry and Behaviour. 61(2): 159-168).
# Specifically, 12 male Long-Evans rats were food-deprived for 22 h with a 2 h feeding period each day. Rats were trained to consume daily food during the 2 h period over 25 days. The testing phase was initiated once the rats consistently consumed 16-18 g of food per day with ≤10% variance in amount of feed consumed. Feeding took place in designated individual boxes in a quiet room separate from the housing room. Continuous remote monitoring via video camera during feeding was used to assess the BSS. Food consumption was measured by weighing the total available food before and after the 2 h feeding window, correcting for spillage. Lorcaserin (1 mg/kg) was included as a reference control (Higgins et al, 2011, Neuropsychopharmacology. 37(5): 1177-1191). Subjects were tested using a repeated-measures, Latin square design with 2-3 days wash-out between treatment cycles.
# On scheduled test days, animals were monitored remotely via video camera during the feeding access period. The occurrence of four mutually exclusive behaviors (eating/drinking, grooming, active, rest) were individually scored. Over the 2 h feeding period, behaviors were assessed every 30 seconds. Scores were compiled into 23 5 min timebins (timebin 24 was removed due to early removal of animals) and the frequency of each behavior within each timebin was calculated to determine a temporal frequency of each measure (Rodgers et al, 2010, Pharmacology Biochemistry and Behaviour. 97: 3-14). Percentage time was plotted for each behavioral sequence in each timebin to compare between treatment groups (Higgins et al, 2011, Neuropsychopharmacology. 37(5): 1177-1191).
# [1] = Compound I-19 0.1 mg/kg, AVG of animals LT-1 to LT-12, 0-0.5 hours
# [2] = Compound I-19 0.1 mg/kg, raw data per animal LT-1 to LT-12, 0-0.5 hours
# [3] = Compound I-19 0.1 mg/kg, raw score per animal (LT-1 to LT-12)
# [4] = Compound I-19 0.3 mg/kg, AVG of animals LT-1 to LT-12
smiles,measurement,setting,value
Clc1ccc(C2(OCC3OCCO3)c3ccccc3C3=NCCN32)cc1 (stereo not drawn) [Compound I-19],"BSS scoring E (eating/drinking), Time Bin 4 (15-20 TOTAL), AVG",[1],0.87
same,"BSS scoring E (eating/drinking), Time Bin 5 (20-25 TOTAL), AVG",[1],0.89
same,"BSS scoring E (eating/drinking), Time Bin 6 (25-30 TOTAL), AVG",[1],0.81
same,"BSS scoring G (grooming), Time Bin 1 (0-5 TOTAL), AVG",[1],0.02
same,"BSS scoring G (grooming), Time Bin 2 (5-10 TOTAL), AVG",[1],0.00
same,"BSS scoring G (grooming), Time Bin 3 (10-15 TOTAL), AVG",[1],0.03
same,"BSS scoring G (grooming), Time Bin 4 (15-20 TOTAL), AVG",[1],0.03
same,"BSS scoring G (grooming), Time Bin 5 (20-25 TOTAL), AVG",[1],0.00
same,"BSS scoring G (grooming), Time Bin 6 (25-30 TOTAL), AVG",[1],0.04
same,"BSS scoring R (resting), Time Bin 1 (0-5 TOTAL), AVG",[1],0.00
same,"BSS scoring R (resting), Time Bin 2 (5-10 TOTAL), AVG",[1],0.00
same,"BSS scoring R (resting), Time Bin 3 (10-15 TOTAL), AVG",[1],0.00
same,"BSS scoring R (resting), Time Bin 4 (15-20 TOTAL), AVG",[1],0.02
same,"BSS scoring R (resting), Time Bin 5 (20-25 TOTAL), AVG",[1],0.03
same,"BSS scoring R (resting), Time Bin 6 (25-30 TOTAL), AVG",[1],0.02
same,"BSS scoring A (active), Time Bin 1 (0-5 TOTAL)",[2],0 (3×) and 1 (7×) and 2 (2×)
same,"BSS scoring A (active), Time Bin 2 (5-10 TOTAL)",[2],1 (5×) and 0 (7×)
same,"BSS scoring A (active), Time Bin 3 (10-15 TOTAL)",[2],1 (3×) and 0 (9×)
same,"BSS scoring A (active), Time Bin 4 (15-20 TOTAL)",[2],5 and 0 (8×) and 4 and 1 (2×)
same,"BSS scoring A (active), Time Bin 5 (20-25 TOTAL)",[2],1 (3×) and 0 (7×) and 3 (2×)
same,"BSS scoring A (active), Time Bin 6 (25-30 TOTAL)",[2],3 (2×) and 1 (6×) and 0 (3×) and 4
same,"BSS scoring E (eating/drinking), Time Bin 1 (0-5 TOTAL)",[2],10 (3×) and 8 (4×) and 9 (5×)
same,"BSS scoring E (eating/drinking), Time Bin 2 (5-10 TOTAL)",[2],9 (5×) and 10 (7×)
same,"BSS scoring E (eating/drinking), Time Bin 3 (10-15 TOTAL)",[2],9 (6×) and 10 (6×)
same,"BSS scoring E (eating/drinking), Time Bin 4 (15-20 TOTAL)",[2],5 and 10 (5×) and 9 (5×) and 4
same,"BSS scoring E (eating/drinking), Time Bin 5 (20-25 TOTAL)",[2],9 (3×) and 10 (6×) and 6 and 7 (2×)
same,"BSS scoring E (eating/drinking), Time Bin 6 (25-30 TOTAL)",[2],5 (2×) and 8 (4×) and 9 (2×) and 10 (3×) and 7
same,"BSS scoring G (grooming), Time Bin 1 (0-5 TOTAL)",[2],0 (10×) and 1 (2×)
same,"BSS scoring G (grooming), Time Bin 2 (5-10 TOTAL)",[2],0
same,"BSS scoring G (grooming), Time Bin 3 (10-15 TOTAL)",[2],0 (9×) and 1 (3×)
same,"BSS scoring G (grooming), Time Bin 4 (15-20 TOTAL)",[2],0 (9×) and 1 (3×)
same,"BSS scoring G (grooming), Time Bin 5 (20-25 TOTAL)",[2],0
same,"BSS scoring G (grooming), Time Bin 6 (25-30 TOTAL)",[2],0 (7×) and 1 (5×)
same,"BSS scoring R (resting), Time Bin 1 (0-5 TOTAL)",[2],0
same,"BSS scoring R (resting), Time Bin 2 (5-10 TOTAL)",[2],0
same,"BSS scoring R (resting), Time Bin 3 (10-15 TOTAL)",[2],0
same,"BSS scoring R (resting), Time Bin 4 (15-20 TOTAL)",[2],0 (10×) and 1 (2×)
same,"BSS scoring R (resting), Time Bin 5 (20-25 TOTAL)",[2],0 (9×) and 1 (2×) and 2
same,"BSS scoring R (resting), Time Bin 6 (25-30 TOTAL)",[2],2 and 0 (11×)
same,"BSS scoring A (active), Time Bin 19 (90-95 TOTAL)",[3],8 and 2 (6×) and 5 and 1 and 7 and 0 and 3
same,"BSS scoring A (active), Time Bin 20 (95-100 TOTAL)",[3],1 (4×) and 0 (4×) and 2 (3×) and 6
same,"BSS scoring A (active), Time Bin 21 (100-105 TOTAL)",[3],0 (8×) and 3 and 1 and 4 and 2
same,"BSS scoring A (active), Time Bin 22 (105-110 TOTAL)",[3],0 (6×) and 4 and 1 (2×) and 2 and 5 and 3
same,"BSS scoring A (active), Time Bin 23 (110-115 TOTAL)",[3],1 and 0 (5×) and 4 and 2 (2×) and 8 and 5 and 3
same,"BSS scoring A (active), Time Bin 24 (115-120 TOTAL)",[3],0 (5×) and 4 and 1 (2×) and 2 (2×) and 3 and 6
same,"BSS scoring E (eating/drinking), Time Bin 19 (90-95 TOTAL)",[3],2 and 4 (3×) and 6 and 0 and 7 (3×) and 3 and 10 and 8
same,"BSS scoring E (eating/drinking), Time Bin 20 (95-100 TOTAL)",[3],9 and 5 and 10 (3×) and 7 (2×) and 0 and 8 and 6 (2×) and 3
same,"BSS scoring E (eating/drinking), Time Bin 21 (100-105 TOTAL)",[3],10 (3×) and 3 and 9 (3×) and 0 and 8 (2×) and 5 and 6
same,"BSS scoring E (eating/drinking), Time Bin 22 (105-110 TOTAL)",[3],10 (2×) and 3 and 9 (2×) and 0 and 6 (2×) and 8 (3×) and 4
same,"BSS scoring E (eating/drinking), Time Bin 23 (110-115 TOTAL)",[3],9 (5×) and 10 and 3 (2×) and 0 and 4 and 5 and 7
same,"BSS scoring E (eating/drinking), Time Bin 24 (115-120 TOTAL)",[3],10 (2×) and 5 and 8 (3×) and 2 and 0 (2×) and 6 and 1 and 4
same,"BSS scoring G (grooming), Time Bin 19 (90-95 TOTAL)",[3],0 (8×) and 1 (4×)
same,"BSS scoring G (grooming), Time Bin 20 (95-100 TOTAL)",[3],0 (8×) and 2 (2×) and 1 (2×)
same,"BSS scoring G (grooming), Time Bin 21 (100-105 TOTAL)",[3],0 (8×) and 1 (3×) and 2
same,"BSS scoring G (grooming), Time Bin 22 (105-110 TOTAL)",[3],0 (8×) and 2 and 1 (3×)
same,"BSS scoring G (grooming), Time Bin 23 (110-115 TOTAL)",[3],0 (8×) and 1 (4×)
same,"BSS scoring G (grooming), Time Bin 24 (115-120 TOTAL)",[3],0 (9×) and 1 (2×) and 2
same,"BSS scoring R (resting), Time Bin 19 (90-95 TOTAL)",[3],0 (7×) and 4 and 1 (2×) and 9 and 3
same,"BSS scoring R (resting), Time Bin 20 (95-100 TOTAL)",[3],0 (6×) and 2 (2×) and 10 and 1 (3×)
same,"BSS scoring R (resting), Time Bin 21 (100-105 TOTAL)",[3],0 (7×) and 4 and 1 (2×) and 10 and 2
same,"BSS scoring R (resting), Time Bin 22 (105-110 TOTAL)",[3],0 (4×) and 1 (5×) and 8 and 3 and 2
same,"BSS scoring R (resting), Time Bin 23 (110-115 TOTAL)",[3],0 (3×) and 2 (2×) and 1 (6×) and 4
same,"BSS scoring R (resting), Time Bin 24 (115-120 TOTAL)",[3],0 (8×) and 1 (2×) and 8 and 5
same,"BSS scoring A (active), Time Bin 19 (90-95 TOTAL), AVG",[4],0.21
same,"BSS scoring A (active), Time Bin 20 (95-100 TOTAL), AVG",[4],0.17
same,"BSS scoring A (active), Time Bin 21 (100-105 TOTAL), AVG",[4],0.06
same,"BSS scoring A (active), Time Bin 22 (105-110 TOTAL), AVG",[4],0.08
same,"BSS scoring A (active), Time Bin 23 (110-115 TOTAL), AVG",[4],0.28
same,"BSS scoring A (active), Time Bin 24 (115-120 TOTAL), AVG",[4],0.14
same,"BSS scoring E (eating/drinking), Time Bin 19 (90-95 TOTAL), AVG",[4],0.63
same,"BSS scoring E (eating/drinking), Time Bin 20 (95-100 TOTAL), AVG",[4],0.69
same,"BSS scoring E (eating/drinking), Time Bin 21 (100-105 TOTAL), AVG",[4],0.73
same,"BSS scoring E (eating/drinking), Time Bin 22 (105-110 TOTAL), AVG",[4],0.69
same,"BSS scoring E (eating/drinking), Time Bin 23 (110-115 TOTAL), AVG",[4],0.52
same,"BSS scoring E (eating/drinking), Time Bin 24 (115-120 TOTAL), AVG",[4],0.44

# Source: patent US20250108038A1 (priority 2023, published 2025)
